According to paper PMC8565515, “Dasabuvir Inhibits Human Norovirus Infection in Human Intestinal Enteroids” (mSphere, 2021):
Structures can show the parent of a compound that is named as a salt. Where two headings read alike, the source gives them in different places.

Legend:
GII.4 HuNoV = GII.4 HuNoV infection of HIE monolayers, viral genome equivalents by RT-qPCR; type: cell-based, human norovirus; conditions: for activity at 10 µM: Norovirus, 24 h, read-out: (%) HuNoV GEs
J2 HIE monolayers = assay: Cytotoxicity by LDH assay in J2 HIE monolayers; conditions: 24 hpi; for (%) Cytotoxicity: compound 10 μM, n = 1, LDH assay, J2 HIE monolayers infected with GII.4 HuNoV, normalized to DMSO control
[1] = compound 10 μM, n = 1, J2 HIE monolayers, GII.4 HuNoV, 24 hpi, normalized to DMSO control

SMILES	activity at 10 µM (GII.4 HuNoV; [1])	(%) Cytotoxicity (J2 HIE monolayers)	also measured
C=C1CC[C@@H]2[C@](C)(CO)[C@H](O)CC[C@@]2(C)[C@@H]1C/C=C1/C(=O)OC[C@H]1O [Andrographolide]	70.9%	-1.18%	
O=C(Nc1ccc(O)cc1)c1ccccc1O [Osalmid]	52.1%	3.16%	
CN(C)C[C@H](O)Cn1c2ccc(Br)cc2c2cc(Br)ccc21 (racemic) [Wiskostatin]	22.9%	2.02%	
CCOC(=O)c1c(CSc2ccccc2)n(C)c2cc(Br)c(O)c(CN(C)C)c12.Cl [Arbidol hydrochloride]		15.58%	(%) HuNoV GEs (GII.4 HuNoV; [1]): 16.88%
O=C1CCC[C@@H]2[C@H]3CCC[N+]4([O-])CCC[C@@H](CN12)[C@@H]34 (stereo partly shown) [Oxymatrine]	56.1%	2.33%	
O=C(/C=C\n1cnc(-c2cc(C(F)(F)F)cc(C(F)(F)F)c2)n1)NNc1ccccn1 [Verdinexor]	142%	10.81%	
O=c1c2ccccc2[se]n1-c1ccccc1 [Ebselen]	96.7%	2.77%	
C[C@@]1(O)[C@H](O)[C@@H](CO)O[C@H]1n1ccc(N)nc1=O [2-CMC, 2′-C-methylcytidine]			effect on HuNoV infection (GII.4 HuNoV; 389 μM, J2 monolayers, GII.4 HuNoV, 24 hpi, positive control): completely blocked viral infection; cytotoxicity (J2 HIE monolayers; 389 μM, J2 monolayers): without any cytotoxicity
COc1ccc(C2CNC(=O)C2)cc1OC1CCCC1 (stereo not shown) [Rolipram]	78.7%	-0.46%	
O=c1[nH]c(=O)n([C@H]2C[C@H](O)[C@@H](CO)O2)cc1/C=C/Br [Brivudine]	34.8%	4.68%	
COC(=O)c1cc(OC)c2c(c1-c1c(CO)cc(OC)c3c1OCO3)OCO2 [Bicyclol]	162%	0.26%	
CC[n+]1c(-c2ccccc2)c2cc(N)ccc2c2ccc(N)cc21 [Ethidium bromide]	21.1%	-1.16%	
O=S(=O)(CCC(F)=C(F)F)c1ncc(Cl)s1 [Fluensulfone]		-2.22%	(%) HuNoV GEs (GII.4 HuNoV; [1]): 63.19%
COc1cc2c(cc1Cc1cccc(Cl)c1F)c(=O)c(C(=O)O)cn2[C@H](CO)C(C)C [Elvitegravir]	164%	0.85%	
C[C@H]1CC[C@@]2(O)C(C)(C)[C@@H]3CC[C@@]2(C)[C@H]1C3 [Patchouli alcohol]		1.24%	(%) HuNoV GEs (GII.4 HuNoV; [1]): 83.87%
CC(C)=O.COC(=O)N[C@H](C(=O)N1CC2(CC2)C[C@H]1c1ncc(-c2ccc3c(c2)C(F)(F)c2cc(-c4ccc5nc([C@@H]6[C@H]7CC[C@H](C7)N6C(=O)[C@@H](NC(=O)OC)C(C)C)[nH]c5c4)ccc2-3)[nH]1)C(C)C [Ledipasvir acetone]		6.17%	(%) HuNoV GEs (GII.4 HuNoV; [1]): 133.29%
O=C1C[C@@H](c2ccc(O)cc2)Oc2cc(O)cc(O)c21 [Naringenin]	165%	1.14%	
CC1(C)CC[C@]2(C(=O)O)CC[C@]3(C)C(=CC[C@@H]4[C@@]5(C)CC[C@H](O)C(C)(C)[C@@H]5CC[C@]43C)[C@@H]2C1 [Oleanolic Acid]	82%	4.14%	
CC1(C)[C@@H](O[C@H]2O[C@H](C(=O)O)[C@@H](O)[C@H](O)[C@H]2O[C@@H]2O[C@H](C(=O)O)[C@@H](O)[C@H](O)[C@H]2O)CC[C@]2(C)[C@H]3C(=O)C=C4[C@@H]5C[C@@](C)(C(=O)O)CC[C@]5(C)CC[C@@]4(C)[C@]3(C)CC[C@@H]12 [Glycyrrhizin]	103%	4.28%	
Cc1nnc(C(=O)NC(C)(C)c2nc(C(=O)NCc3ccc(F)cc3)c(O)c(=O)n2C)o1 [Raltegravir]	49.3%	1.45%	
Cc1cc(C)c(Nc2ccnc(Nc3ccc(C#N)cc3)n2)c(C)c1 [Dapivirine]	24.8%	0.74%	
CN[C@@H]1[C@H](O)[C@H](NC)[C@H]2O[C@@]3(O)C(=O)C[C@@H](C)O[C@H]3O[C@@H]2[C@H]1O.Cl.Cl [Spectinomycin dihydrochloride]		-1.44%	(%) HuNoV GEs (GII.4 HuNoV; [1]): 109.17%

SMILES	activity at 10 µM (GII.4 HuNoV; [1])	(%) Cytotoxicity (J2 HIE monolayers)	also measured
COc1cc(O)c(CC=C(C)C)c(O)c1C(=O)/C=C/c1ccc(O)cc1 [Xanthohumol]	67.3%	2.40%	
CC(C)OC(=O)[C@H](C)N[P@](=O)(CO[C@H](C)Cn1cnc2c(N)ncnc21)Oc1ccccc1 [Tenofovir alafenamide]		-0.20%	activity at 10 µM (GII.4 HuNoV): 55.2%
Nc1nc2c(ncn2[C@@H]2O[C@H](CO)[C@@H](O)[C@H]2O)c(=O)[nH]1 [Guanosine]	32.3%	0.15%	
CC(C)c1nc(CN(C)C(=O)N[C@@H](CCN2CCOCC2)C(=O)N[C@H](CC[C@H](Cc2ccccc2)NC(=O)OCc2cncs2)Cc2ccccc2)cs1 [Cobicistat]	19.8%	-2.34%	
COC(=O)N[C@H](C(=O)NNC[C@H](O)[C@H](Cc1ccccc1)NC(=O)[C@@H](NC(=O)OC)C(C)(C)C)C(C)(C)C [Des(benzylpyridyl) Atazanavi]		2.40%	(%) HuNoV GEs (GII.4 HuNoV; [1]): 101.09%
CC1(C)[C@@H](O[C@H]2O[C@H](C(=O)O)[C@@H](O)[C@H](O)[C@H]2O[C@@H]2O[C@H](C(=O)O)[C@@H](O)[C@H](O)[C@H]2O)CC[C@]2(C)[C@H]3C(=O)C=C4[C@@H]5C[C@@](C)(C(=O)O)CC[C@]5(C)CC[C@@]4(C)[C@]3(C)CC[C@@H]12.N.N [Diammonium Glycyrrhizinate]		0.23%	(%) HuNoV GEs (GII.4 HuNoV; [1]): 22.61%
CC(N)C12CC3CC(CC(C3)C1)C2 (stereo not shown) [Rimantadine hydrochloride]	40.9%	2.41%	
CCCCCCCCCC(=O)O[C@H]1CC[C@H]2[C@@H]3CCC4=CC(=O)CC[C@@H]4[C@H]3CC[C@]12C [Nandrolone decanoate]	58.9%	0.98%	
Cc1cnc(C(=O)N[C@H]2CCCCC/C=C\[C@@H]3C[C@@]3(C(=O)NS(=O)(=O)C3CC3)NC(=O)[C@@H]3C[C@@H](Oc4nc5ccccc5c5ccccc45)CN3C2=O)cn1 [Paritaprevir]	45%	-0.33%	
CC(C)OC(=O)[C@H](C)N[P@](=O)(OC[C@H]1O[C@@H](n2ccc(=O)[nH]c2=O)[C@](C)(F)[C@@H]1O)Oc1ccccc1 [Sofosbuvir]	22.6%	0.74%	
Cc1nc(N(C)C(=O)Cc2ccc(-c3ccccn3)cc2)sc1S(N)(=O)=O [Pritelivir]	64.5%	-1.63%	
C[C@@H]1O[C@@H](O[C@H]2[C@H](Oc3cc(O)c4c(c3)O[C@H](c3ccc(O)cc3)CC4=O)O[C@H](CO)[C@@H](O)[C@@H]2O)[C@H](O)[C@H](O)[C@H]1O [Naringin]	101%	5.67%	
COc1ccc([C@H]2OC[C@H]3[C@@H]2CO[C@H]3c2ccc(O[C@@H]3O[C@H](CO)[C@@H](O)[C@H](O)[C@H]3O)c(OC)c2)cc1OC [Forsythin]		1.24%	(%) HuNoV GEs (GII.4 HuNoV; [1]): 52.42%
Nc1ncnc2c1ncn2[C@@H]1O[C@H](COP(=O)(O)O)[C@@H](O)[C@H]1O.O [Adenosine 5'-monophosphate monohydrate]	34.4%	0.18%	
Cl.N=C(N=C(N)N)N1CCOCC1 [Moroxydine hydrochloride]		-1.11%	(%) HuNoV GEs (GII.4 HuNoV; [1]): 119.22%
CCOC(=O)c1c(C)n(C)c2ccc(O)cc12 [Mecarbinate]		0.93%	(%) HuNoV GEs (GII.4 HuNoV; [1]): 102.13%
Cc1ccnc2c1NC(=O)c1cccnc1N2C1CC1 [Nevirapine]	56.6%	0.72%	
CC(C)(C)C#Cc1cc(N(C(=O)[C@H]2CC[C@H](C)CC2)[C@H]2CC[C@H](O)CC2)c(C(=O)O)s1 [Lomibuvir]	87.6%	-1.75%	
CCOC(=O)CCC(=O)O[C@H]1[C@H](O[C@@H]2[C@@H](C)[C@H](O[C@H]3C[C@@](C)(OC)[C@@H](O)[C@H](C)O3)[C@@H](C)C(=O)O[C@H](CC)[C@@](C)(O)[C@H](O)[C@@H](C)C(=O)[C@H](C)C[C@@]2(C)O)O[C@H](C)C[C@@H]1N(C)C [Erythromycin ethylsuccinate]	107%	0.23%	
Cc1cc(C#N)cc(C)c1Oc1nc(Nc2ccc(C#N)cc2)nc(N)c1Br [Etravirine]	28.8%	24.52%	
NC(=O)c1nc(F)c[nH]c1=O [Favipiravir]	81%	-1.51%	
CC(C)c1cc(Oc2c(Cl)cc(-n3nc(C#N)c(=O)[nH]c3=O)cc2Cl)n[nH]c1=O [MGL3196]	70.8%	-0.56%	
